Source: US6680334B2, “Crystalline material” (Pfizer Inc, priority 2001, dated 2004)
In brackets after ≈: the same amount, converted by molar mass. Blank lines part the entries; values can stand above or below the compound they belong to.

Assays:
[1] = Solubility in aqueous buffers of different pH; assay type: physicochemical; conditions: for solubility: aqueous buffer
[2] = assay type: physicochemical
Description: The stability of crystalline amlodipine free base bulk and amlodipine free base tablets was assessed by storing samples for up to 6 or 12 weeks at 25° C./60% RH, 40° C./75% RH and 50° C./20% RH. Changes were monitored using a stability-indicating HPLC method. Results were calculated by normalised peak area (npa). Degradants were identified by comparison of their relative retention times against impurity standards.

solubility ([1]; pH 1.2, simulated gastric fluid, SGN pH: 1.20): > 5 mg/mL | solubility ([1]; Acetate pH: 5.93): > 5 mg/mL | solubility ([1]; Glycine pH: 9.25): 0.13 mg/mL (≈ 318 µM) | solubility ([1]; NaOH pH: 11.44): < 0.05 mg/mL | solubility ([1]; Phosphate pH: 7.71): 0.72 mg/mL (≈ 1760 µM)
SMILES: CCOC(=O)C1=C(COCCN)NC(C)=C(C(=O)OC)C1c1ccccc1Cl (racemic) [Example 2, Amlodipine]

Stability with respect to formation of known and unknown degradants [2]: stability was demonstrated
SMILES: CCOC(=O)C1=C(COCCN)NC(C)=C(C(=O)OC)C1c1ccccc1Cl (stereo not shown) [crystalline amlodipine free base, 2-[(2-aminoethoxy)]-methyl-4-(2-chlorophenyl)-3-ethoxycarbonyl-5-methoxycarbonyl-6-methyl-1,4-dihydropyridine]

Solubility (in words) ([1]; solid free base initially synthesised in-house, no conditions given): poorly soluble
SMILES: CCOC(=O)C1=C(COCCN)NC(C)=C(C(=O)OC)C1c1ccccc1Cl (stereo not shown) [solid free base initially synthesised, Amlodipine, reference compound]
